Measured values published in patent publication US7674827B2, “Indanyl- and tetrahydronaphtyl-amino-thiourea compounds for combating animal pests” (BASF SE, priority 2005, dated 2010).

How the values were obtained:
Type in all cases: in vivo
Aphis gossypii = assay: Cotton aphid (Aphis gossypii) mortality test on dipped cotton plants; settings: 120 h, cotton cotyledons dipped, aphid mortality determined after 5 days, read-out: mortality in comparison with untreated controls
Protocol: (§1) The active compounds were formulated • a. for testing the activity against Aphis gossypii, Myzus persicae, and Aphis fabae, as 50:50 acetone:water solutions amended with 100 ppm Kinetic® (surfactant), • b. for testing the activity against Spodoptera eridania as a 10.000 ppm solution in a mixture of 35% acetone and water, which was diluted with water, if needed.
(§2) After the experiments were completed, in each case the lowest concentration was determined at which the compound still caused an 75 to 100% inhibition or mortality in comparison with untreated controls (limit or minimal concentration).
B.1 Cotton Aphid (Aphis gossypii)
(§3) Cotton plants in the cotyledon stage (variety ‘Delta Pine’) are infested with approximately 100 laboratory-reared aphids by placing infested leaf sections on top of the test plants. The leaf sections are removed after 24 hr. The cotyledons of the intact plants are dipped into gradient solutions of the test compound. Aphid mortality on the treated plants, relative to mortality on check plants, is determined after 5 days.

Myzus persicae = assay: Green peach aphid (Myzus persicae) mortality test on dipped pepper plants; settings: 120 h, pepper plant leaves dipped, aphid mortality determined after 5 days, read-out: mortality in comparison with untreated controls
Protocol: as §1, §2
B.2 Green Peach Aphid (Myzus persicae)
as §3, with “Pepper” for “Cotton”, “2nd leaf-pair” for “cotyledon”, “‘California Wonder’)” for “‘Delta Pine’)”, “40” for “100”, “leaves” for “cotyledons”

Aphis fabae = assay: Bean aphid (Aphis fabae) mortality test on dipped nasturtium plants; settings: foliar, 72 h, nasturtium foliage and stem dipped, aphid mortality determined after 3 days, read-out: mortality in comparison with untreated controls
Protocol: as §1, §2
B.3 Bean Aphid (Aphis fabae)
Nasturtium plants in the 1st leaf-pair stage (variety ‘Mixed Jewel’) are infested with approximately 25 laboratory-reared aphids by placing infested cut plants on top of the test plants. The cut plants are removed after 24 hr. The foliage and stem of the test plants are dipped into gradient solutions of the test compound. Aphid mortality is determined after 3 days.

Measured: mortality at 300 ppm

O=C(OCCNC(=S)NC1CCc2ccccc21)c1ccncc1 (racemic) [Example 13, Isonicotinic acid 2-(3-indan-1-yl-thioureido)-ethyl ester]
> 80%: all assays above

COCC(=O)OCCNC(=S)NC1CCc2ccccc21 (racemic) [Example 14, Methoxy-acetic acid 2-(3-indan-1-yl-thioureido)-ethyl ester]
> 80%: all assays above
